Results as given in patent publication US9763884B2, “Drug delivery system” (EB IP HYBRITABS B.V., priority 2011, dated 2017).

What was measured:
[1] = Pharmacokinetics of three single doses of sublingual testosterone solution in healthy premenopausal women; conditions: for AUC(0-t) / Cmax / MRT / Tmax / half-life / bioavailability: female, human, in vivo; for AUC(0-t) / Cmax / MRT / Tmax / half-life: serum; for AUC(0-t) / Cmax: geometric mean (% CV); for MRT / Tmax / half-life: mean ± SD
Method: All 16 subjects received each investigational drug dose once in random order. Wash-out between treatments was at least 48 h. Subjects had serial blood samples drawn via an intravenous catheter. Pharmacokinetic parameters were monitored at baseline and (at 2, 4, 6, 8, 10, 20, 30, 60, 90, 120, 180, 230 min) after dosing.
Blood samples in the placebo condition were only measured at −5, 10, 60 and 230 min.
For the placebo solution 0.50 ml was administered.
The different doses were prepared by an unblinded research associate and administered by blinded research associates. The blinded research associate administered the solution into the subjects mouth under the tongue, the subjects were instructed to keep the solution sublingually for 1 minute while moving the tongue slightly to optimize absorption. After 1 minute the blinded research associate instructed the subject to swallow the solution.
E2 was analysed by a chemiluminescence immunoassay (Siemens), the LLOQ was […]. 3α-diol-G was measured by ELISA (BioVendor), the LLOQ was 0.25 ng/mL. SHBG was measured by an electrochemiluminescent assay (ECLIA, Roche). Albumin was measured by Roche Bromocresol Green (BCG) analysis (Roche).
The pharmacokinetic parameters were analyzed using the WinNonlin software (version 5.1). Pharmacokinetic parameters including area under the curve, t=0 till t=230 min (AUC0-230), maximum concentration (Cmax) and time to maximum concentration (tmax) were calculated based on actual and baseline corrected individual concentration time curves. AUCs were estimated using the linear trapezoidal rule. Individual pharmacokinetic parameters AUC0-230 and Cmax and corresponding dose normalized parameters were log transformed and analyzed using a mixed maximum likelihood analysis (PROC MIXED in SAS, version 9.1) including subject as a random factor and drug as a fixed effect factor. Contrasts were made of the least square means to compare the different doses. Tmax was analyzed using a Wilcoxon rank sum test. This was based on the planned times corresponding to the actual tmax to prevent bias in analysis results based on differences in sampling times.
Subsequently, we divided the subjects into two subgroups, on the basis of their baseline SHBG levels (mean of placebo, 0.25, 0.50, 0.75 mg predose levels). This subdivision was based on a median split of the baseline SHBG levels. One group (N=8) with low SHBG levels (≦63 nmol/L) and the other group (N=8) with relatively high SHBG levels (>63 nmol/L).

[2] = Clinical cross-over pharmacokinetic study of F1 versus F2 (testosterone and sildenafil citrate) in healthy pre-menopausal women; conditions: female, human, plasma, other: sublingual, 0.5 mg
Method: Sildenafil (S) and N-desmethyl-sildenafil (NDS) concentrations were determined by HPLC-MS/MS as follows.
The human plasma samples were vortex mixed and 0.5 mL of the sample was transferred into a clean test tube to which 20 μL of an Internal Standard solution (10 ng/mL) in methanol was added and vortex mixed. Then, 4 mL Methyl-Tertiary-Butyl-Ether (MTBE) was added, tubes were capped and shaken for 10 minutes and then centrifuged for 5 minutes at 2000 rcf. The tubes were placed into a snap freezer and the bottom water layer was frozen. The supernatant was transferred into a clean tube and evaporated to dryness under a stream of nitrogen. […]
Cmax and Tmax were read from the observed values. The half life was calculated from the unweighted linear regression of the log transformed data determined at the elimination phase of the pharmacokinetic profile. The Area Under Curve (O-last) was determined as the area under the concentration versus time curve from the first time point to last time point with measurable drug concentration with a linear/log-linear trapezoidal model. The AUC (0-∞) was determined by extrapolation from the time point where the last measurable drug concentration (Cp) occurred to time infinity. […] Tlag was determined as the first time point with a measurable concentration.
The calculated concentrations were used for PK calculations.

[3] = general statement in the discussion, no source given; cited from earlier work
[4] = 0.25 mg, free testosterone, 0.25 mg sublingual
[5] = 0.25 mg, total testosterone, 0.25 mg sublingual
[6] = 0.5 mg, free testosterone, 0.50 mg sublingual
[7] = 0.5 mg, total testosterone, 0.50 mg sublingual
[8] = 0.75 mg, free testosterone, 0.75 mg sublingual
[9] = 0.75 mg, total testosterone, 0.75 mg sublingual
[10] = subjects with high SHBG, 0.25 mg
[11] = subjects with high SHBG, 0.50 mg
[12] = subjects with high SHBG, 0.75 mg
[13] = subjects with low SHBG, 0.25 mg, at 20 min after dosing
[14] = subjects with low SHBG, 0.50 mg, at 20 min after dosing
[15] = subjects with low SHBG, 0.75 mg, at 20 min after dosing

## C[C@]12CC[C@H]3[C@@H](CCC4=CC(=O)CC[C@@]43C)[C@@H]1CC[C@@H]2O [Testosterone, testosterone]
[1]; all three doses (0.25, 0.50, 0.75 mg) sublingual
  time at which serum free and total testosterone levels peaked: 15 min
[1]; 0.25 mg, Baseline corrected AUC 0-230, free testosterone, 0.25 mg sublingual
  AUC(0-t): 0.0158 ng·h/mL
[1]; 0.25 mg, Baseline corrected AUC 0-230, total testosterone, 0.25 mg sublingual
  AUC(0-t): 3.23 ng·h/mL
[1]; [4]
  Cmax: 0.021 ng/mL
  MRT: 52.6 min
  Tmax: 15.6 min
[1]; [5]
  Cmax: 3.79 ng/mL
  MRT: 57.7 min
  Tmax: 15.6 min
[1]; 0.25 mg, t1/2, free testosterone, 0.25 mg sublingual
  half-life: 42.3 ± 14.6 min
[1]; 0.25 mg, t1/2, total testosterone, 0.25 mg sublingual
  half-life: 49.8 ± 16 min
[1]; 0.5 mg
  bioavailability: 69%
[1]; 0.5 mg, Baseline corrected AUC 0-230, free testosterone, 0.50 mg sublingual
  AUC(0-t): 0.0252 ng·h/mL
[1]; 0.5 mg, Baseline corrected AUC 0-230, total testosterone, 0.50 mg sublingual
  AUC(0-t): 4.43 ng·h/mL
[1]; [6]
  Cmax: 0.032 ng/mL
  MRT: 57.1 min
  Tmax: 14.4 min
[1]; [7]
  Cmax: 5.31 ng/mL
  MRT: 55.6 min
  Tmax: 15.1 min
[1]; 0.5 mg, t1/2, free testosterone, 0.50 mg sublingual
  half-life: 55.7 ± 27.5 min
[1]; 0.5 mg, t1/2, total testosterone, 0.50 mg sublingual
  half-life: 49.7 ± 22.4 min
[1]; 0.75 mg
  bioavailability: 58%
[1]; 0.75 mg, Baseline corrected AUC 0-230, free testosterone, 0.75 mg sublingual
  AUC(0-t): 0.0312 ng·h/mL
[1]; 0.75 mg, Baseline corrected AUC 0-230, total testosterone, 0.75 mg sublingual
  AUC(0-t): 5.62 ng·h/mL
[1]; [8]
  Cmax: 0.043 ng/mL
  MRT: 51.4 min
  Tmax: 12.8 min
[1]; [9]
  Cmax: 6.73 ng/mL
  MRT: 59.5 min
  Tmax: 14.3 min
[1]; 0.75 mg, t1/2, free testosterone, 0.75 mg sublingual
  half-life: 51.1 ± 26.4 min
[1]; 0.75 mg, t1/2, total testosterone, 0.75 mg sublingual
  half-life: 58.5 ± 24.6 min
[1]; increasing doses, t=0, 60, 120, 230
  influence on 3α-diol-G concentrations: does not seem to influence
[1]; [10]
  maximum levels of free testosterone: 0.018 ng/mL
  maximum levels of total testosterone: 5.00 ng/mL
[1]; [11]
  maximum levels of free testosterone: 0.026 ng/mL
  maximum levels of total testosterone: 7.08 ng/mL
[1]; [12]
  maximum levels of free testosterone: 0.034 ng/mL
  maximum levels of total testosterone: 9.04 ng/mL
[1]; [13]
  maximum levels of free testosterone: 0.026 ng/mL
  maximum levels of total testosterone: 3.18 ng/mL
[1]; [14]
  maximum levels of free testosterone: 0.039 ng/mL
  maximum levels of total testosterone: 3.93 ng/mL
[1]; [15]
  maximum levels of free testosterone: 0.048 ng/mL
  maximum levels of total testosterone: 4.73 ng/mL
[1]; three doses sublingual testosterone
  tolerability: well tolerated
[2]
  Tmax: 10 to 20 min
  half-life: ~37 min
[3]
  T1/2 of free testosterone (rapidly metabolized): 10 min
